Source: patent US20240228438A1, “SOLID FORMS OF SALTS OF 4-[5-[(3S)-3-AMINOPYRROLIDINE-1-CARBONYL]-2-[2-FLUORO-4-(2- HYDROXY-2-ETHYLPROPYL)PHENYL]PHENYL]-2-FLUORO-BENZONITRILE” (Astex Pharmaceuticals, Inc., priority 2021, published 2024)
Structures can show the parent of a compound that is named as a salt.

Columns and labels:
[1] = Stability testing: water absorption of salt forms at 40° C. and 75% RH for five days (KF); assay type: physicochemical; conditions: for Initial KF: water content before exposure; for KF water content after 5 days at 40° C./75% RH: open vial covered with Kim wipe
Experimental: The stability of different salt forms was tested. The salts were placed in 20-mL scintillation vials and covered with Kim wipe, and the resulting vials were exposed to 40° C. and 75% RH (relative humidity) for five days. The samples were analyzed for water absorption.

[2] = Aqueous solubility of the salt form (overall assessment); assay type: physicochemical; conditions: in words

## CC(C)(O)Cc1ccc(-c2ccc(C(=O)N3CC[C@H](N)C3)cc2-c2ccc(C#N)c(F)c2)c(F)c1 [esylate Form IVA, 4-[5-[(3S)-3-aminopyrrolidine-1-carbonyl]-2-[2-fluoro-4-(2-hydroxy-2-methylpropyl)phenyl]phenyl]-2-fluoro-benzonitrile esylate]
[1]
  Initial KF: 0.76%

## CC(C)(O)Cc1ccc(-c2ccc(C(=O)N3CC[C@H](N)C3)cc2-c2ccc(C#N)c(F)c2)c(F)c1 [hemi-fumarate Form I, 4-[5-[(3S)-3-aminopyrrolidine-1-carbonyl]-2-[2-fluoro-4-(2-hydroxy-2-methylpropyl)phenyl]phenyl]-2-fluoro-benzonitrile hemi fumarate]
[1]; five days
  KF water content after 5 days at 40° C./75% RH: 1.57%
[1]; overall assessment, in words
  hygroscopicity: slightly hygroscopic
  residual water: low residual water
[1]
  Initial KF: 0.69%

## CC(C)(O)Cc1ccc(-c2ccc(C(=O)N3CC[C@H](N)C3)cc2-c2ccc(C#N)c(F)c2)c(F)c1 [maleate Form V, 4-[5-[(3S)-3-aminopyrrolidine-1-carbonyl]-2-[2-fluoro-4-(2-hydroxy-2-methylpropyl)phenyl]phenyl]-2-fluoro-benzonitrile maleate]
[1]; maleate
  Initial KF: 1.08%

## CC(C)(O)Cc1ccc(-c2ccc(C(=O)N3CC[C@H](N)C3)cc2-c2ccc(C#N)c(F)c2)c(F)c1 [mesylate Form IIIA, 4-[5-[(3S)-3-aminopyrrolidine-1-carbonyl]-2-[2-fluoro-4-(2-hydroxy-2-methylpropyl)phenyl]phenyl]-2-fluoro-benzonitrile mesylate]
[1]; mesylate
  Initial KF: 2.55%

## CC(C)(O)Cc1ccc(-c2ccc(C(=O)N3CC[C@H](N)C3)cc2-c2ccc(C#N)c(F)c2)c(F)c1 [mono-fumarate Form VI]
[1]; 40° C./75% RH, five days, result in words
  moisture take-up under the tested conditions: did not take-up moisture
[1]; five days
  KF water content after 5 days at 40° C./75% RH: 0.63%
[1]
  Initial KF: 0.61%

## CC(C)(O)Cc1ccc(-c2ccc(C(=O)N3CC[C@H](N)C3)cc2-c2ccc(C#N)c(F)c2)c(F)c1 [mono-oxalate (from EtOH) Form II, 4-[5-[(3S)-3-aminopyrrolidine-1-carbonyl]-2-[2-fluoro-4-(2-hydroxy-2-methylpropyl)phenyl]phenyl]-2-fluoro-benzonitrile mono-oxalate]
[1]; five days, mono-oxalate
  KF water content after 5 days at 40° C./75% RH: 4.46%
[1]; overall assessment, in words
  hygroscopicity: slightly hygroscopic
[1]; mono-oxalate
  Initial KF: 1.06%
[2]
  aqueous solubility: good aqueous solubility

## CC(C)(O)Cc1ccc(-c2ccc(C(=O)N3CC[C@H](N)C3)cc2-c2ccc(C#N)c(F)c2)c(F)c1 [mono-oxalate salt (from IPA)]
[1]; five days
  KF water content after 5 days at 40° C./75% RH: 4.99%
[1]
  Initial KF: 2.66%
